Measurements reported in article PMC9867837 (Cancer letters, 2022).

Key:
[1] = target: T1, hERG (Homo sapiens, UniProt Q12809); experiment: CEREP SafetyScreen44, hERG; assay type: binding; conditions: 10 μM H182
T1 construct: Eurofins-CEREP (contract research organisation that ran the assay)
Procedure: The in vivo activity of a compound is influenced by its overall bioavailability, which is also driven by parameters, such as solubility, permeability, and metabolism. […] These values are all above the industry cut-off of 60 μg/ml. […] It has CLint in human hepatocytes of 16 μL/min/10^6 cells, which falls into moderate stability range [43].

[2] = Mouse liver microsome stability; assay type: in vitro ADME; conditions: liver microsomes, read-out: Metabolic Stability MLM t1/2
Procedure: (§1) Solubility, human (HLM) and mouse liver microsomal (MLM), and plasma stability studies were performed by Eurofins Cerep Panlabs and Eurofin Discovery Services (www.eurofins.com/PharmaDiscovery), while protein binding studies were performed by Sanford Burnham Prebys Chemical Biology & Drug Discovery Core using standard protocols.

[3] = target: T2, Stat3 (Homo sapiens, UniProt P40763); experiment: Stat3 activity and target gene expression in extracted tumor tissues; assay type: in vivo, mouse; design: Tissue lysates of equal total protein prepared from the extracted tumors; from tissue; host or cells: extracted tumour tissue from treated and untreated mice
Procedure: We then profiled tumor tissues for Stat3 activity and Stat3 target gene expression as pharmacodynamic markers of therapeutic response. Tissue lysates of equal total protein prepared from the extracted tumors were subjected to Stat3 DNA-binding assay/EMSA analysis or SDS-PAGE and immunoblotting analysis.
These studies were performed as previously described [1 -3] . Briefly, snap-frozen tumor tissues or cultured cells treated or not were harvested and whole-cell or tissue lysates were prepared in radioimmunoprecipitation assay (RIPA) buffer. Samples of equal total protein were subjected to SDS - PAGE and immunoblotting analysis. Primary antibodies used were anti- Stat3, pY705-Stat3, pS727Stat3, […]
Akt, pT202/Y204Erk1/2 (p44/42), Erk1/2, PARP , caspase 3, c-Myc, survivin, VEGF, β-actin, α/β-tubulin, and GAPDH. For the studies of the effects of cell density and confluence on pY705Stat3, cells were seeded […] in culture dishes. The next day, cells were untreated (DMSO control, […]
concentration of H182 for 6 h and then treated with 0- 100 nM docetaxel or 0-20 µM cisplatin for a total of 72 h. Viable cell numbers were assessed by a CyQuant cell proliferation kit according to the manufacturer’s instructions (Thermo/Life Technologies Corp, Carlsbad, CA). […]
Target sequence in this assay (P40763 2-770 limits assumed): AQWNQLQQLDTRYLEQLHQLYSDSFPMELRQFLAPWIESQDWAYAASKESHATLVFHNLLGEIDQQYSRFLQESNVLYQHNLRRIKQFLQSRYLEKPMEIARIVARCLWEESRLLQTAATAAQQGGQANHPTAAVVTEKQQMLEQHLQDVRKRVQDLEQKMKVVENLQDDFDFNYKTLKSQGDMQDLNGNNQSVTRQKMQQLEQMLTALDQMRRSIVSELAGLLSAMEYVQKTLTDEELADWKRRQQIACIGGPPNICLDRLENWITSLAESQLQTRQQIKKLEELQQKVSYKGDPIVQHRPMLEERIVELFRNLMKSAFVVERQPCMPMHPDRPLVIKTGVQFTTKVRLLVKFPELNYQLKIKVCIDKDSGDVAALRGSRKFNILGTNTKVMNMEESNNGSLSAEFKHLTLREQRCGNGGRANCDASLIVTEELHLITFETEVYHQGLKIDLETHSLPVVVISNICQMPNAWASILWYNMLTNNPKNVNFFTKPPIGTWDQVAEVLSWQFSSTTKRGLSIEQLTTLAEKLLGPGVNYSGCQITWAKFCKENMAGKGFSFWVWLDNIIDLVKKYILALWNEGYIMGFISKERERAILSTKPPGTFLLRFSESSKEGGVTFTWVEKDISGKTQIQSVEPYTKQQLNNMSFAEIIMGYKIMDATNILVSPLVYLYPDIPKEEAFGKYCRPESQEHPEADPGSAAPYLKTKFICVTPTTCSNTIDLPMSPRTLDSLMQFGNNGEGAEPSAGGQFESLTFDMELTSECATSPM

[4] = Plasma stability, human; assay type: in vitro ADME
Procedure: as §1

[5] = target: T2, Stat3; experiment: Immunofluorescence confocal microscopy of Stat3 localization; assay type: cell-based; design: endogenous in cells; conditions: MDA-MB-231 and MDA-MB-468, 1 or 2 μM H182, 12 h
Procedure: These studies were performed as previously reported. Details are presented in Supplementary Information, “Methods”.
During confluence of cultured cells, the cell-to-cell adhesion and cadherin engagement trigger increased Tyr705Stat3 phosphorylation in a variety of cell lines. To investigate the impact of cell-to-cell adhesion and cadherin engagement, parallel studies were conducted in which cells in culture were untreated or treated with 1 or 2 μM H182 for 0.5–48 h, and whole-cell lysates prepared and immunoprobed for pTyr705Stat3. […] After 48-h incubation, the cell confluency of the DMSO-treated samples reached to around 60% for MDA-MB-468 cells and 80% for MDA-MB-231 cells. […] In the untreated cells, Stat3 (red punctate) staining was predominantly localized in the nucleus of the tumor cells, with weak presence in the cytoplasm (Fig. 4F, 0, Stat3, red merged with blue DAPI nuclear staining). […] Total Stat3 protein levels in all of these studies were unchanged, and GAPDH, tubulin or β-actin levels show equal protein loading. The percent changes induced by H182 treatment on Stat3 DNA-binding activity and phosphorylation in the treated cells are shown.
These studies were performed as previously reported . […]
Target sequence in this assay (P40763 whole entry): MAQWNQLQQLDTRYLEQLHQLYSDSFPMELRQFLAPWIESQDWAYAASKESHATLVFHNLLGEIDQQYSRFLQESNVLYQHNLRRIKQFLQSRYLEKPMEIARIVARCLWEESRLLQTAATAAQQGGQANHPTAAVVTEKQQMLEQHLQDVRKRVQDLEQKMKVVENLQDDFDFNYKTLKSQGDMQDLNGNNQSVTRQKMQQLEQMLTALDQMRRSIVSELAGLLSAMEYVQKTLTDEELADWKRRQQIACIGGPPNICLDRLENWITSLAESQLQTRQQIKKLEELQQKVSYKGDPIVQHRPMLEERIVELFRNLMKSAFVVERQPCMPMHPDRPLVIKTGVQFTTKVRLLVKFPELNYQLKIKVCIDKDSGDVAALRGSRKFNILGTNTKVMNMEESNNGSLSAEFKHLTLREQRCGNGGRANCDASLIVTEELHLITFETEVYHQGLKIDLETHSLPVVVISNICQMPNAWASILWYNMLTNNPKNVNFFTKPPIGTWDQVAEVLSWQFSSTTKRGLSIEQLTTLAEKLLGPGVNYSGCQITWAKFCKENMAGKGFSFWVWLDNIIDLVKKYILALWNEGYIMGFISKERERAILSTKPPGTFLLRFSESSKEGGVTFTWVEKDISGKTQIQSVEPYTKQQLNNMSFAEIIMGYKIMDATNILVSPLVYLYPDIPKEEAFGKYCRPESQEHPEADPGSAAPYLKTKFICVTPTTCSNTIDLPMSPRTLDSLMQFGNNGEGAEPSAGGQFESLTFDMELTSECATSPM

T1 sequence (Q12809 whole entry): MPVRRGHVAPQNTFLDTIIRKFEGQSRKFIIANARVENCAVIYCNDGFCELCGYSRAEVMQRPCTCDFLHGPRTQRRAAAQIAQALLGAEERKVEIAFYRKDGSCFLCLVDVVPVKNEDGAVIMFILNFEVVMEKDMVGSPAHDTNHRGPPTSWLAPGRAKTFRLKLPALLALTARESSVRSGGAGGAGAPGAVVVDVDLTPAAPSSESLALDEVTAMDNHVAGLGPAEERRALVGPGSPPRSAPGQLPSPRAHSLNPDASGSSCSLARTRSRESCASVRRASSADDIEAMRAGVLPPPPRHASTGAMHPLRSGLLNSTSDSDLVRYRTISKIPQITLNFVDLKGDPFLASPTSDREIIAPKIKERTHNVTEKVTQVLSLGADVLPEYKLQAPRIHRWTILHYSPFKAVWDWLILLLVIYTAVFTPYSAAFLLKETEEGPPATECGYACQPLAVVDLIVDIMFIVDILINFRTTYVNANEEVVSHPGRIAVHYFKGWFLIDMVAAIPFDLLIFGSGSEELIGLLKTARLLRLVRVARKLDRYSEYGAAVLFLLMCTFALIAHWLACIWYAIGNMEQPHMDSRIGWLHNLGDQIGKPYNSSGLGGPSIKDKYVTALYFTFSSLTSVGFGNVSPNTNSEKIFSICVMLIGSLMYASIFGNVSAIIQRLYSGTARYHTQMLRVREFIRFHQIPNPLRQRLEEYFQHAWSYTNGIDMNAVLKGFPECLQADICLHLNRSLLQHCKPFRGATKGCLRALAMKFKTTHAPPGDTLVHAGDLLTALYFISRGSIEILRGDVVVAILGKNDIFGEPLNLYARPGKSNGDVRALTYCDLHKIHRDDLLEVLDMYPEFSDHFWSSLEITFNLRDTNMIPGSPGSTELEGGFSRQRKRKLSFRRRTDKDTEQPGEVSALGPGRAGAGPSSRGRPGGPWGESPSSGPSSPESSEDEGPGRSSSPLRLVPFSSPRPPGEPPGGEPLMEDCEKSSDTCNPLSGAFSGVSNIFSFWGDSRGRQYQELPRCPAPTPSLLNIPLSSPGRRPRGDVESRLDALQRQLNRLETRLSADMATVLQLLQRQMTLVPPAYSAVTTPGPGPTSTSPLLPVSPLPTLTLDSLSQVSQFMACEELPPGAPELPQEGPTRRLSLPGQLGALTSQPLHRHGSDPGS

O=C([C@H]1CCN1S(=O)(=O)c1c(F)c(F)c(F)c(F)c1F)N(Cc1ccc(C2CCCCC2)cn1)c1ccc2c(=O)[nH]ncc2c1 [Compound H182]
inhibition at 10 µM [1]: > 80%
half-life [2]: > 2.5 h
Stat3 DNA-binding activity in tumor tissues ([3]; EMSA of tumor tissue lysates, treated vs untreated control): suppressed Stat3 DNA-binding activity in tumor tissues
Expression of c-Myc, VEGF, and survivin in tumor tissues ([3]; immunoblotting of tumor tissue lysates): suppression of the expression of Stat3 downstream genes
remaining at 1 h ([4]; 1 h): 53%
remaining at 2 h ([4]; 2 h): 10%
Effect on intracellular localization of Stat3 [5]: decreased nuclear Stat3 staining and Stat3 aggregation at the perinuclear region
